Tests used:
[1] = Inhibition of yeast Fba; set-up: species or system Saccharomyces cerevisiae
[2] = Inhibition of rabbit muscle Fba; set-up: species or system Oryctolagus cuniculus
[3] = Inhibition of Helicobacter pyroli recombinant Fba expressed in Escherichia coli JM 109; set-up: species or system Helicobacter pylori
Saccharomyces cerevisiae = test: Ratio of Km of fructose bis-phosphate for yeast Fba to Ki of compound for yeast Fba
Oryctolagus cuniculus = species: Oryctolagus cuniculus; test: Ratio of Km of fructose bis-phosphate for rabbit Fba to Ki of compound for rabbit Fba
Helicobacter pylori = test: Ratio of Km of fructose bis-phosphate for Helicobacter pyroli recombinant Fba to Ki of compound for Helicobacter pyroli recombinant Fba

With `O=P(O)(O)OC[C@@H](O)[C@@H](O)[C@H](O)[C@H](O)COP(=O)(O)O` the Ki [1] was 0.4 µM, the Ki [2] was 7.3 µM and the Ki [3] was 0.073 µM. For the same compound, the Ratio (Saccharomyces cerevisiae) was 0.5, the Ratio (Oryctolagus cuniculus) was 2.74 and the Ratio (Helicobacter pylori) was 0.27.
`O=P(O)(O)OC[C@@H](O)[C@@H](O)[C@H](O)[C@@H](O)COP(=O)(O)O` showed a Ki [1] of 0.06 µM, a Ki [2] of 100 µM and a Ki [3] of 0.17 µM. The Ratio (Saccharomyces cerevisiae) was 3.33, the Ratio (Oryctolagus cuniculus) was 0.2 and the Ratio (Helicobacter pylori) was 0.12.

— ChEMBL document CHEMBL1141517 (Bioorg Med Chem Lett, 2008)
